Where a SMILES comes first, the peptide text is derived from it. [ ]: non-standard residue; d: D form. NMeF = CN[C@@H](Cc1ccccc1)C(=O)O; NMeL = CN[C@@H](CC(C)C)C(=O)O; dNMeL = CN[C@H](CC(C)C)C(=O)O; NMeM = CN[C@@H](CCSC)C(=O)O; NMeV = CN[C@H](C(=O)O)C(C)C; NMeA = CN[C@@H](C)C(=O)O; dNMeA = CN[C@H](C)C(=O)O
Columns and labels:
[1] = PAMPA
[2] = in vitro; conditions: PAMPA, PAMPA_Papp_Avg

SMILES | PAMPA_R1 [1] | PAMPA_R3 [1] | Papp [2]
CC[C@@H](C)[C@H]1NC(=O)[C@H]2CCCN2C(=O)[C@H]([C@@H](C)CC)NC(=O)[C@H](CC(C)C)N(C)C(=O)[C@H]2CCCN2C(=O)[C@@H]2CCCN2C(=O)[C@H](Cc2ccccc2)N(C)C(=O)[C@H](Cc2ccccc2)NC(=O)[C@H]([C@@H](C)CC)NC1=O [Design D9.13, DPRO DILE ILE PHE *PHE PRO DPRO *LEU ILE] (cyclo(F[NMeF]P[dP][NMeL]I[dP][dI]I)) | 3.63E-06 | 3.09E-06 | 3.37 ×10⁻⁶ cm/s
CC[C@H](C)[C@@H]1NC(=O)[C@@H](CC(C)C)NC(=O)[C@@H]2CCCN2C(=O)[C@@H]2CCCN2C(=O)[C@@H](CC(C)C)NC(=O)[C@@H]2CCCN2C(=O)[C@H]2CCCN2C(=O)[C@@H](C(C)C)NC(=O)[C@@H](C)N(C)C1=O [Design D9.14, PRO DLEU ILE *DALA DVAL DPRO PRO DLEU PRO] (cyclo([dL]PP[dL]I[dNMeA][dV][dP]P)) | 6.02E-07 | 5.63E-07 | 0.584 ×10⁻⁶ cm/s
CC[C@H](C)[C@@H]1NC(=O)[C@@H](C)NC(=O)[C@@H]2CCCN2C(=O)[C@H]2CCCN2C(=O)[C@@H]2CCCN2C(=O)[C@@H](C)NC(=O)[C@@H](Cc2ccccc2)NC(=O)[C@@H](CC(C)C)N(C)C(=O)[C@@H](CC(C)C)N(C)C1=O [Design D9.15, PRO DPRO PRO DALA ILE *DLEU *DLEU DPHE DALA] (cyclo([dA]I[dNMeL][dNMeL][dF][dA]P[dP]P)) | 9.95E-07 | 6.20E-07 | 0.85 ×10⁻⁶ cm/s
CC(C)C[C@@H]1C(=O)N[C@H](C(C)C)C(=O)N(C)[C@@H](C(C)C)C(=O)N2CCC[C@H]2C(=O)N2CCC[C@@H]2C(=O)N[C@@H](C)C(=O)N(C)[C@@H](Cc2ccccc2)C(=O)N(C)[C@H](CC(C)C)C(=O)N[C@H](C)C(=O)N1C [Design D9.17, DPRO ALA *PHE *DLEU DALA *DLEU DVAL *VAL PRO] (cyclo(A[NMeF][dNMeL][dA][dNMeL][dV][NMeV]P[dP])) | 2.83E-06 | 4.13E-07 | 1.74 ×10⁻⁶ cm/s
CC(C)C[C@@H]1C(=O)N(C)[C@H](CC(C)C)C(=O)N2CCC[C@H]2C(=O)N[C@H](CC(C)C)C(=O)N2CCC[C@@H]2C(=O)N2CCC[C@@H]2C(=O)N(C)[C@H](CC(C)C)C(=O)N[C@H](Cc2ccccc2)C(=O)N[C@@H](C)C(=O)N1C [Design D9.18, ALA *DLEU *DLEU PRO DLEU DPRO DPRO *DLEU DPHE] (cyclo(A[dNMeL][dNMeL]P[dL][dP][dP][dNMeL][dF])) | 1.88E-06 | 1.97E-06 | 1.76 ×10⁻⁶ cm/s
CC(C)C[C@@H]1NC(=O)[C@@H](CC(C)C)NC(=O)[C@@H](CC(C)C)N(C)C(=O)[C@@H](CC(C)C)N(C)C(=O)[C@H](C(C)C)NC(=O)[C@@H](C)N(C)C(=O)[C@@H]2CCCN2C(=O)[C@@H]2CCCN2C(=O)[C@@H](C)N(C)C1=O [Design D9.19, PRO *DALA VAL *DLEU *DLEU DLEU LEU *DALA PRO] (cyclo(L[dNMeA]PP[dNMeA]V[dNMeL][dNMeL][dL])) | 1.47E-06 | 1.16E-06 | 1.28 ×10⁻⁶ cm/s
CC(C)C[C@@H]1NC(=O)[C@@H]2CCCN2C(=O)[C@H]2CCCN2C(=O)[C@@H](C)N(C)C(=O)[C@@H](CC(C)C)N(C)C(=O)[C@H](C(C)C)NC(=O)[C@@H](C)N(C)C(=O)[C@H]2CCCN2C(=O)[C@@H]2CCCN2C1=O [Design D9.22, DPRO *DALA VAL *DLEU *DALA DPRO PRO LEU PRO] (cyclo(LP[dP][dNMeA]V[dNMeL][dNMeA][dP]P)) | 1.87E-07 | 1.82E-07 | 0.189 ×10⁻⁶ cm/s
CC[C@@H](C)[C@H]1NC(=O)[C@@H](CC(C)C)NC(=O)[C@@H]2CCCN2C(=O)[C@H]2CCCN2C(=O)[C@@H](C(C)C)NC(=O)[C@H](C)NC(=O)[C@@H]2CCCN2C(=O)[C@@H]([C@H](C)CC)NC(=O)[C@@H](C)N(C)C1=O [Design D9.23, DILE *DALA DILE PRO ALA DVAL DPRO PRO DLEU] (cyclo([dL][dI][dNMeA][dI]PA[dV][dP]P)) | 1.37E-07 | 1.50E-07 | 0.141 ×10⁻⁶ cm/s
CSCC[C@H]1C(=O)N(C)[C@H](C)C(=O)N[C@H](CC(C)C)C(=O)N2CCC[C@@H]2C(=O)N2CCC[C@H]2C(=O)N[C@@H](CC(C)C)C(=O)N2CCC[C@H]2C(=O)N2CCC[C@@H]2C(=O)N[C@H](C(C)C)C(=O)N1C [Design D9.24, DPRO DVAL *MET *DALA DLEU DPRO PRO LEU PRO] (cyclo(LP[dP][dV][NMeM][dNMeA][dL][dP]P)) | 7.85E-08 | 8.51E-08 | 0.0869 ×10⁻⁶ cm/s
CC(C)C[C@@H]1C(=O)N[C@H](Cc2ccccc2)C(=O)N2CCC[C@@H]2C(=O)N2CCC[C@@H]2C(=O)N2CCC[C@H]2C(=O)N[C@H](C(C)C)C(=O)N(C)[C@@H](C)C(=O)N(C)[C@@H](C)C(=O)N(C)[C@H](CC(C)C)C(=O)N1C [Design D9.25, DVAL *ALA *ALA *DLEU *DLEU DPHE DPRO DPRO PRO] (cyclo([dV][NMeA][NMeA][dNMeL][dNMeL][dF][dP][dP]P)) | 2.32E-06 | 1.52E-06 | 2.19 ×10⁻⁶ cm/s
CC[C@@H](C)[C@H]1NC(=O)[C@H]2CCCN2C(=O)[C@@H](C)NC(=O)[C@@H](CC(C)C)N(C)C(=O)[C@H]([C@@H](C)CC)NC(=O)[C@@H](C(C)C)NC(=O)[C@@H](CC(C)C)N(C)C(=O)[C@@H]2CCCN2C(=O)[C@@H]2CCCN2C1=O [Design D9.26, DPRO DILE PRO PRO *DLEU DVAL ILE *DLEU DALA] (cyclo(I[dNMeL][dA][dP][dI]PP[dNMeL][dV])) | 2.58E-06 | 2.23E-06 | 2.32 ×10⁻⁶ cm/s
CC(C)C[C@@H]1NC(=O)[C@@H](C)N(C)C(=O)[C@@H](CC(C)C)N(C)C(=O)[C@@H]2CCCN2C(=O)[C@H]2CCCN2C(=O)[C@@H](C)NC(=O)[C@@H]2CCCN2C(=O)[C@H]2CCCN2C(=O)[C@@H](CC(C)C)NC1=O [Design D9.27, DLEU DPRO PRO DALA DPRO PRO *DLEU *DALA LEU] (cyclo([dA][dP]P[dNMeL][dNMeA]L[dL][dP]P)) | 3.26E-08 | 3.49E-08 | 0.0334 ×10⁻⁶ cm/s
CC(C)C[C@@H]1C(=O)N[C@H](C)C(=O)N[C@@H](C(C)C)C(=O)N2CCC[C@@H]2C(=O)N[C@H](C(C)C)C(=O)N2CCC[C@@H]2C(=O)N2CCC[C@H]2C(=O)N[C@H](C)C(=O)N(C)[C@H](CC(C)C)C(=O)N1C [Design D9.29, DVAL DPRO PRO DALA *DLEU *DLEU DALA VAL DPRO] (cyclo([dA][dNMeL][dNMeL][dA]V[dP][dV][dP]P)) | 1.96E-06 | 1.19E-06 | 1.51 ×10⁻⁶ cm/s
CC(C)C[C@@H]1NC(=O)[C@H](Cc2ccccc2)N(C)C(=O)[C@H]2CCCN2C(=O)[C@@H](CC(C)C)NC(=O)[C@@H](CC(C)C)NC(=O)[C@H](C)NC(=O)[C@H]2CCCN2C(=O)[C@@H]2CCCN2C(=O)[C@@H](C(C)C)NC1=O [Design D9.32, DPRO ALA DLEU DLEU DPRO *PHE LEU DVAL PRO] (cyclo(A[dL][dL][dP][NMeF]L[dV]P[dP])) | 2.62E-07 | 2.67E-07 | 0.24 ×10⁻⁶ cm/s

From article PMC9490236, “Accurate de novo design of membrane-traversing macrocycles” (Cell, 2022)
